Measured values published in US9738634B2, “Heterocyclic amide compound and herbicide” (SYNGENTA PARTICIPATIONS AG, priority 2013, dated 2017).

Columns and labels:
Format in all cases: in vivo
Conditions in all cases: treatment dosage 320 g/ha
wheat [1] = assay: Test Example 3: soil treatment, effect on crop; e: wheat
Procedure, shortened: (§1)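 Crop and weed responses were judged three weeks after a uniform surface spray of the water-diluted emulsion at the given g/ha rate. Seeds sat beneath about 1.5 cm of sterilized diluvial soil, and boxes stood in a greenhouse at 25 to 30° C.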

chickweed [2] = assay: Test Example 3: weedkilling efficacy through soil treatment; N: chickweed
Procedure, shortened: as §1

oval-leafed pondweed [3] = assay: Test Example 1: weedkilling efficacy, preemergent weed treatment in the submerged state; C: oval-leafed pondweed
Procedure, shortened: (§2)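 Submerged pre-emergence treatment, water-surface application of compound emulsion at g/ha dosages; 4 cm flooded alluvial soil, weeds sown and 2.5-leaf rice transplanted same day. Rated after 3 weeks, greenhouse.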

bulrush [4] = assay: Test Example 2: weedkilling efficacy, growth period weed treatment in the submerged state; B: bulrush
Procedure, shortened: (§3)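 Seedlings at 1-2 leaves in 4 cm-deep submerged alluvial soil received emulsion formulations on the water surface, dosed per hectare; effects were judged 3 weeks on.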

green foxtail [5] = assay: Test Example 4: weedkilling efficacy by foliar treatment; E: green foxtail
Procedure, shortened: (§4)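 Seeds are spot-sown into sterilized diluvial soil and covered with about 1.5 cm of soil. After 14 days' greenhouse growth at 25 to 30° C, plants are sprayed on stems and leaves with diluted emulsion at the stated g/ha rate, then scored at 3 weeks.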

chickweed [6] = assay: Test Example 4: weedkilling efficacy by foliar treatment; N: chickweed
Procedure, shortened: as §4

barnyard grass [7] = assay: Test Example 2: weedkilling efficacy, growth period weed treatment in the submerged state; A: barnyard grass
Procedure, shortened: as §3

wheat [8] = assay: Test Example 4: foliar treatment, effect on crop; e: wheat
Procedure, shortened: as §4

barnyard grass [9] = assay: Test Example 1: weedkilling efficacy, preemergent weed treatment in the submerged state; A: barnyard grass
Procedure, shortened: as §2

black-grass [10] = assay: Test Example 3: weedkilling efficacy through soil treatment; H: black-grass
Procedure, shortened: as §1

catchweed = assay: Test Example 4: weedkilling efficacy by foliar treatment; O: catchweed
Procedure, shortened: as §4

beet = assay: Test Example 4: foliar treatment, effect on crop; f: beet
Procedure, shortened: as §4

wild oat [11] = assay: Test Example 3: weedkilling efficacy through soil treatment; G: wild oat
Procedure, shortened: as §1

redroot pigweed [12] = assay: Test Example 4: weedkilling efficacy by foliar treatment; L: redroot pigweed
Procedure, shortened: as §4

fig-leafed goosefoot [13] = assay: Test Example 3: weedkilling efficacy through soil treatment; M: fig-leafed goosefoot
Procedure, shortened: as §1

soybean [14] = assay: Test Example 4: foliar treatment, effect on crop; d: soybean
Procedure, shortened: as §4

barnyard grass [15] = assay: Test Example 3: weedkilling efficacy through soil treatment; F: barnyard grass
Procedure, shortened: as §1

green foxtail [16] = assay: Test Example 3: weedkilling efficacy through soil treatment; E: green foxtail
Procedure, shortened: as §1

corn [17] = assay: Test Example 4: foliar treatment, effect on crop; c: corn
Procedure, shortened: as §4

common wind-grass [18] = assay: Test Example 4: weedkilling efficacy by foliar treatment; J: common wind-grass
Experimental: (§5) Testing of Weedkilling Efficacy by Foliar Treatment
(§6) Sterilized diluvial soil was introduced into 21 cm long, 13 cm wide, 7 cm deep plastic boxes, and seeds of crabgrass, green foxtail, barnyard grass, wild oat, black-grass, Italian ryegrass, common wind-grass, Indian mallow, redroot pigweed, fig-leafed goosefoot, chickweed, catchweed, birds-eye speedwell, corn, soybean, rice, wheat, beet and rapeseed were each spot-sown, and covered with about 1.5 cm of soil, then the plants were grown in a greenhouse at 25 to 30° C.
(§7) After they had grown for 14 days, emulsions of compounds of the present invention prepared according to compounding example 2 were diluted with water to give the specified dosages, and applied uniformly onto the stem and leaf parts with a small sprayer. 3 weeks after the pesticide treatment the effect on each type of plant was investigated on the basis of the assessment criteria of test example 1.
(§8) A: barnyard grass, B: bulrush, C: oval-leafed pondweed, D: crabgrass, E: green foxtail, F: barnyard grass, G: wild oat, H: black-grass, I: Italian ryegrass, J: common wind-grass, K: Indian mallow, L: redroot pigweed, M: fig-leafed goosefoot, N: chickweed, O: catchweed, p: birds-eye speedwell, a: transplanted rice, b: directly sown rice, c: corn, d: soybean, e: wheat, f: beet, g: rapeseed
(§9) Further, pesticide dosage (g/ha) indicates the concentration regulated such that treatment was with only the stated number of grams (g), when calculated per hectare (ha).

soybean [19] = assay: Test Example 3: soil treatment, effect on crop; d: soybean
Procedure, shortened: as §1

Indian mallow [20] = assay: Test Example 3: weedkilling efficacy through soil treatment; K: Indian mallow
Procedure, shortened: as §1

corn [21] = assay: Test Example 3: soil treatment, effect on crop; c: corn
Procedure, shortened: as §1

barnyard grass [22] = assay: Test Example 4: weedkilling efficacy by foliar treatment; F: barnyard grass
Experimental: as §5, §6, §7, §8, §9

fig-leafed goosefoot [23] = assay: Test Example 4: weedkilling efficacy by foliar treatment; M: fig-leafed goosefoot
Procedure, shortened: as §4

oval-leafed pondweed [24] = assay: Test Example 2: weedkilling efficacy, growth period weed treatment in the submerged state; C: oval-leafed pondweed
Procedure, shortened: as §3

crabgrass [25] = assay: Test Example 4: weedkilling efficacy by foliar treatment; D: crabgrass
Procedure, shortened: as §4

black-grass [26] = assay: Test Example 4: weedkilling efficacy by foliar treatment; H: black-grass
Procedure, shortened: as §4

crabgrass [27] = assay: Test Example 3: weedkilling efficacy through soil treatment; D: crabgrass
Procedure, shortened: as §1

rapeseed [28] = assay: Test Example 3: soil treatment, effect on crop; g: rapeseed
Procedure, shortened: as §1

common wind-grass [29] = assay: Test Example 3: weedkilling efficacy through soil treatment; J: common wind-grass
Procedure, shortened: as §1

transplanted rice = assay: Test Example 1: preemergent weed treatment in the submerged state, effect on crop; a: transplanted rice
Procedure, shortened: as §2

Indian mallow [30] = assay: Test Example 4: weedkilling efficacy by foliar treatment; K: Indian mallow
Procedure, shortened: as §4

Italian ryegrass [31] = assay: Test Example 3: weedkilling efficacy through soil treatment; I: Italian ryegrass
Procedure, shortened: as §1

Italian ryegrass [32] = assay: Test Example 4: weedkilling efficacy by foliar treatment; I: Italian ryegrass
Procedure, shortened: as §4

rapeseed [33] = assay: Test Example 4: foliar treatment, effect on crop; g: rapeseed
Experimental: as §5, §6, §7, §8, §9

bulrush [34] = assay: Test Example 1: weedkilling efficacy, preemergent weed treatment in the submerged state; B: bulrush
Procedure, shortened: as §2

directly sown rice [35] = assay: Test Example 4: foliar treatment, effect on crop; b: directly sown rice
Procedure, shortened: as §4

wild oat [36] = assay: Test Example 4: weedkilling efficacy by foliar treatment; G: wild oat
Procedure, shortened: as §4

directly sown rice [37] = assay: Test Example 3: soil treatment, effect on crop; b: directly sown rice
Procedure, shortened: as §1

redroot pigweed [38] = assay: Test Example 3: weedkilling efficacy through soil treatment; L: redroot pigweed
Procedure, shortened: as §1

Structure (SMILES): CC1=C(c2cccnc2F)C(=O)N(C(C)(C)C(=O)Nc2cc(C(F)(F)F)cc(Cl)n2)CO1 [B-2-16]
- e (wheat) effect on crop grade (wheat [1]): 1 (weed kill ratio 5% or more, less than 20%)
- N (chickweed) weedkilling efficacy grade (chickweed [2]): 4 (weed kill ratio 70% or more, less than 90%)
- C (oval-leafed pondweed) weedkilling efficacy grade (oval-leafed pondweed [3]): 5 (weed kill ratio 90% or more, (practically complete withering))
- B (bulrush) weedkilling efficacy grade (bulrush [4]): 5 (weed kill ratio 90% or more, (practically complete withering))
- E (green foxtail) weedkilling efficacy grade (green foxtail [5]): 5 (weed kill ratio 90% or more, (practically complete withering))
- N (chickweed) weedkilling efficacy grade (chickweed [6]): 4 (weed kill ratio 70% or more, less than 90%)
- A (barnyard grass) weedkilling efficacy grade (barnyard grass [7]): 5 (weed kill ratio 90% or more, (practically complete withering))
- e (wheat) effect on crop grade (wheat [8]): 3 (weed kill ratio 40% or more, less than 70%)
- A (barnyard grass) weedkilling efficacy grade (barnyard grass [9]): 5 (weed kill ratio 90% or more, (practically complete withering))
- H (black-grass) weedkilling efficacy grade (black-grass [10]): 5 (weed kill ratio 90% or more, (practically complete withering))
- O (catchweed) weedkilling efficacy grade (catchweed): 4 (weed kill ratio 70% or more, less than 90%)
- f (beet) effect on crop grade (beet): 4 (weed kill ratio 70% or more, less than 90%)
- G (wild oat) weedkilling efficacy grade (wild oat [11]): 5 (weed kill ratio 90% or more, (practically complete withering))
- L (redroot pigweed) weedkilling efficacy grade (redroot pigweed [12]): 4 (weed kill ratio 70% or more, less than 90%)
- M (fig-leafed goosefoot) weedkilling efficacy grade (fig-leafed goosefoot [13]): 4 (weed kill ratio 70% or more, less than 90%)
- d (soybean) effect on crop grade (soybean [14]): 4 (weed kill ratio 70% or more, less than 90%)
- F (barnyard grass) weedkilling efficacy grade (barnyard grass [15]): 5 (weed kill ratio 90% or more, (practically complete withering))
- E (green foxtail) weedkilling efficacy grade (green foxtail [16]): 5 (weed kill ratio 90% or more, (practically complete withering))
- c (corn) effect on crop grade (corn [17]): 4 (weed kill ratio 70% or more, less than 90%)
- J (common wind-grass) weedkilling efficacy grade (common wind-grass [18]): 5 (weed kill ratio 90% or more, (practically complete withering))
- d (soybean) effect on crop grade (soybean [19]): 1 (weed kill ratio 5% or more, less than 20%)
- K (Indian mallow) weedkilling efficacy grade (Indian mallow [20]): 2 (weed kill ratio 20% or more, less than 40%)
- c (corn) effect on crop grade (corn [21]): 1 (weed kill ratio 5% or more, less than 20%)
- F (barnyard grass) weedkilling efficacy grade (barnyard grass [22]): 5 (weed kill ratio 90% or more, (practically complete withering))
- M (fig-leafed goosefoot) weedkilling efficacy grade (fig-leafed goosefoot [23]): 5 (weed kill ratio 90% or more, (practically complete withering))
- C (oval-leafed pondweed) weedkilling efficacy grade (oval-leafed pondweed [24]): 5 (weed kill ratio 90% or more, (practically complete withering))
- D (crabgrass) weedkilling efficacy grade (crabgrass [25]): 5 (weed kill ratio 90% or more, (practically complete withering))
- H (black-grass) weedkilling efficacy grade (black-grass [26]): 5 (weed kill ratio 90% or more, (practically complete withering))
- D (crabgrass) weedkilling efficacy grade (crabgrass [27]): 5 (weed kill ratio 90% or more, (practically complete withering))
- g (rapeseed) effect on crop grade (rapeseed [28]): 3 (weed kill ratio 40% or more, less than 70%)
- J (common wind-grass) weedkilling efficacy grade (common wind-grass [29]): 5 (weed kill ratio 90% or more, (practically complete withering))
- a (transplanted rice) effect on crop grade (transplanted rice): 4 (weed kill ratio 70% or more, less than 90%)
- K (Indian mallow) weedkilling efficacy grade (Indian mallow [30]): 5 (weed kill ratio 90% or more, (practically complete withering))
- I (Italian ryegrass) weedkilling efficacy grade (Italian ryegrass [31]): 5 (weed kill ratio 90% or more, (practically complete withering))
- I (Italian ryegrass) weedkilling efficacy grade (Italian ryegrass [32]): 5 (weed kill ratio 90% or more, (practically complete withering))
- g (rapeseed) effect on crop grade (rapeseed [33]): 4 (weed kill ratio 70% or more, less than 90%)
- B (bulrush) weedkilling efficacy grade (bulrush [34]): 5 (weed kill ratio 90% or more, (practically complete withering))
- b (directly sown rice) effect on crop grade (directly sown rice [35]): 5 (weed kill ratio 90% or more, (practically complete withering))
- G (wild oat) weedkilling efficacy grade (wild oat [36]): 5 (weed kill ratio 90% or more, (practically complete withering))
- b (directly sown rice) effect on crop grade (directly sown rice [37]): 5 (weed kill ratio 90% or more, (practically complete withering))
- L (redroot pigweed) weedkilling efficacy grade (redroot pigweed [38]): 0 (weed kill ratio 5% or less (practically no effect))
